Tests used:
soybean [1] = assay: Test A postemergence; assay type: in vivo, Glycine max; conditions: postemergence, 10 days
In short: (§1)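 Loam/sand soil; pre-em directed soil spray at planting, post-em spray at 1–2 leaf (2–10 cm). Compound in non-phytotoxic solvent + surfactant. Greenhouse 10 d; visual injury vs untreated, 0 = no effect, 100 = complete control.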

soybean [2] = assay: Test A preemergence; assay type: in vivo, Glycine max
In short: as §1

ducksalad = assay: Test B flooded paddy test; assay type: in vivo, Heteranthera limosa; conditions: 250 g ai/ha, Flood, 13 days, 0 to 100 scale (0 no effect, 100 complete control)
In short: (§2)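 Flooded to 3 cm at treatment time, 2-leaf plants got the test compound applied straight into the paddy water. They then stayed under constant flood in a greenhouse for 13 days. Ratings used a 0 to 100 visual scale.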

ryegrass, Italian [3] = assay: Test A preemergence; assay type: in vivo, Lolium multiflorum
In short: as §1

sedge, umbrella = assay: Test B flooded paddy test; assay type: in vivo, Cyperus difformis; conditions: 250 g ai/ha, Flood, 13 days, 0 to 100 scale (0 no effect, 100 complete control)
In short: as §2

pigweed, palmer [4] = assay: Test A postemergence; assay type: in vivo, Amaranthus palmeri; conditions: postemergence, 10 days
In short: as §1

barnyardgrass = assay: Test B flooded paddy test; assay type: in vivo, Echinochloa crus-galli; conditions: 250 g ai/ha, Flood, 13 days, 0 to 100 scale (0 no effect, 100 complete control)
In short: as §2

oat, wild [5] = assay: Test A postemergence; assay type: in vivo, Avena fatua; conditions: postemergence, 10 days
In short: as §1

kochia [6] = assay: Test A preemergence; assay type: in vivo, Bassia scoparia
In short: as §1

ryegrass, Italian [7] = assay: Test A postemergence; assay type: in vivo, Lolium multiflorum; conditions: postemergence, 10 days
In short: as §1

ragweed [8] = assay: Test A postemergence; assay type: in vivo, Ambrosia artemisiifolia; conditions: postemergence, 10 days
In short: as §1

ragweed [9] = assay: Test A preemergence; assay type: in vivo, Ambrosia artemisiifolia
In short: as §1

goosegrass [10] = assay: Test A preemergence; assay type: in vivo, Eleusine indica
In short: as §1

corn [11] = assay: Test A preemergence; assay type: in vivo, Zea mays
In short: as §1

rice = assay: Test B flooded paddy test; assay type: in vivo, Oryza sativa; conditions: 250 g ai/ha, Flood, 13 days, 0 to 100 scale (0 no effect, 100 complete control)
In short: as §2

kochia [12] = assay: Test A postemergence; assay type: in vivo, Bassia scoparia; conditions: postemergence, 10 days
In short: as §1

foxtail, giant [13] = assay: Test A preemergence; assay type: in vivo, Setaria faberi
In short: as §1

oat, wild [14] = assay: Test A preemergence; assay type: in vivo, Avena fatua
In short: as §1

wheat [15] = assay: Test A postemergence; assay type: in vivo, Triticum aestivum; conditions: postemergence, 10 days
In short: as §1

goosegrass [16] = assay: Test A postemergence; assay type: in vivo, Eleusine indica; conditions: postemergence, 10 days
In short: as §1

corn [17] = assay: Test A postemergence; assay type: in vivo, Zea mays; conditions: postemergence, 10 days
In short: as §1

wheat [18] = assay: Test A preemergence; assay type: in vivo, Triticum aestivum
In short: as §1

blackgrass [19] = assay: Test A preemergence; assay type: in vivo, Alopecurus myosuroides
In short: as §1

blackgrass [20] = assay: Test A postemergence; assay type: in vivo, Alopecurus myosuroides; conditions: postemergence, 10 days
In short: as §1

foxtail, giant [21] = assay: Test A postemergence; assay type: in vivo, Setaria faberi; conditions: postemergence, 10 days
In short: as §1

pigweed, palmer [22] = assay: Test A preemergence; assay type: in vivo, Amaranthus palmeri
In short: as §1

horseweed = assay: Test A postemergence; assay type: in vivo, Erigeron canadensis; conditions: postemergence, 10 days
In short: as §1

[23] = 125 g ai/ha, 0 to 100 scale, 0 no effect, 100 complete control
[24] = 500 g ai/ha, visual injury, 0 to 100 scale (0 no effect, 100 complete control)
[25] = 125 g ai/ha, visual injury after 10 days, 0 to 100 scale, 0 is no effect, 100 is complete control
[26] = 500 g ai/ha, 0 to 100 scale (0 no effect, 100 complete control), 10 days

COc1ccc(-n2cnc(C(C)(C)C)n2)cc1C(=O)N1C[C@H](C)Oc2c(Cl)cccc21 [Compound 83]
Soybean plant response rating (soybean [1]; [23]): 100
Plant response rating, Soybean (soybean [1]; [24]): 100
Plant response rating, Soybean (soybean [2]; [25]): 50
Plant response rating, Soybean (soybean [2]; [26]): 100
Plant response rating, Ducksalad (ducksalad): 30
Plant response rating, Ryegrass, Italian (ryegrass, Italian [3]; [25]): 100
Plant response rating, Ryegrass, Italian (ryegrass, Italian [3]; [26]): 100
Plant response rating, Sedge, Umbrella (sedge, umbrella): 100
Pigweed, Palmer plant response rating (pigweed, palmer [4]; [23]): 100
Plant response rating, Pigweed, Palmer (pigweed, palmer [4]; [24]): 90
Plant response rating, Barnyardgrass (barnyardgrass): 40
Oat, Wild plant response rating (oat, wild [5]; [23]): 20
Plant response rating, Oat, Wild (oat, wild [5]; [24]): 70
Plant response rating, Kochia (kochia [6]; [25]): 90
Plant response rating, Kochia (kochia [6]; [26]): 100
Ryegrass, Italian plant response rating (ryegrass, Italian [7]; [23]): 40
Plant response rating, Ryegrass, Italian (ryegrass, Italian [7]; [24]): 100
Ragweed plant response rating (ragweed [8]; [23]): 70
Plant response rating, Ragweed (ragweed [8]; [24]): 100
Plant response rating, Ragweed (ragweed [9]; [25]): 50
Plant response rating, Ragweed (ragweed [9]; [26]): 90
Plant response rating, Goosegrass (goosegrass [10]; [25]): 100
Plant response rating, Goosegrass (goosegrass [10]; [26]): 100
Plant response rating, Corn (corn [11]; [25]): 0
Plant response rating, Corn (corn [11]; [26]): 20
Plant response rating, Rice (rice): 0
Kochia plant response rating (kochia [12]; [23]): 100
Plant response rating, Kochia (kochia [12]; [24]): 100
Plant response rating, Foxtail, Giant (foxtail, giant [13]; [25]): 100
Plant response rating, Foxtail, Giant (foxtail, giant [13]; [26]): 100
Plant response rating, Oat, Wild (oat, wild [14]; [25]): 90
Plant response rating, Oat, Wild (oat, wild [14]; [26]): 90
Wheat plant response rating (wheat [15]; [23]): 10
Plant response rating, Wheat (wheat [15]; [24]): 40
Goosegrass plant response rating (goosegrass [16]; [23]): 70
Plant response rating, Goosegrass (goosegrass [16]; [24]): 100
Corn plant response rating (corn [17]; [23]): 30
Plant response rating, Corn (corn [17]; [24]): 50
Plant response rating, Wheat (wheat [18]; [25]): 10
Plant response rating, Wheat (wheat [18]; [26]): 90
Plant response rating, Blackgrass (blackgrass [19]; [25]): 40
Plant response rating, Blackgrass (blackgrass [19]; [26]): 50
Blackgrass plant response rating (blackgrass [20]; [23]): 10
Plant response rating, Blackgrass (blackgrass [20]; [24]): 60
Foxtail, Giant plant response rating (foxtail, giant [21]; [23]): 20
Plant response rating, Foxtail, Giant (foxtail, giant [21]; [24]): 90
Plant response rating, Pigweed, Palmer (pigweed, palmer [22]; [25]): 100
Plant response rating, Pigweed, Palmer (pigweed, palmer [22]; [26]): 100
Horseweed plant response rating (horseweed; [23]): 40
Plant response rating, Horseweed (horseweed; [24]): 40

— patent US20260262643A1, “HERBICIDAL BENZOXAZINES” (FMC CORPORATION, priority 2022, published 2026)
